Test results published in US9566334B2, “Combinations of a PI3K/AKT inhibitor compound with an HER3/EGFR inhibitor compound and use thereof in the treatment of a hyperproliferative disorder” (THE GENERAL HOSPITAL CORPORATION, priority 2012, dated 2017).

Experiments:
[1] = system: HCC70 cells; assay: Heregulin- and EGF-induced proliferation; assay type: cell-based
Method: For proliferation, 5×10^5 cells were seeded in 96-well plates and treated with the indicated concentrations of GDC-0068, GDC-0941, and/or MEH[…]. After 5 days, cells were fixed and stained with Crystal Violet. Cell proliferation was also analyzed with CellTiter-Glo Luminescent Cell Viability Assay (Promega) as described by the manufacturer. For heregulin (HRG, Peprotech) and epidermal growth factor (EGF, Peprotech)-induced proliferation, 5×10^5 cells were treated with GDC-0068, GDC-0941, and/or MEH[…] in the presence of 4 ng/ml of ligands for 5 days and then stained with Crystal Violet.

[2] = system: MDA-MB-468, HCC70 and patient-derived xenograft; assay: In vivo activity in three different models of TNBC; parameters: species or system mice
Method: Several TNBC cell lines were treated with MEHD7945A, a dual-action antibody that targets both EGFR and HER3, AKT inhibitor GDC-0068, and pan-PI3K inhibitor GDC -0941. Cell viability was measured by CellTiter-Glo and Crystal Violet. Both cell line- and patient -derived xenograft models of TNBC were treated with MEHD7945A, GDC-0068, GDC-0941, or the combination of MEHD7945A with either GDC-0068 or GDC-0941. Tumor size and histology were examined. Protein expression was measured by Western blot, Mass Spectometry, CEER and immunohistochemistry.
To test the activity of these compounds in vivo, three different models of TNBC were used: two cell line (MDA-MB-468 and HCC70)-based and a patient-derived xenograft.
All mouse studies were conducted through institutional Animal Care and Use Committee (IACUC) approved animal protocols in accordance with institutional guidelines. Six-week-old female athymic nude mice were purchased from Charles River Laboratories and housed in air-filtered laminar flow cabinets with a 12-hour light cycle and food and water ad libitum.
(§1) For cell line-derived xenograft studies, mice were injected subcutaneously with 1×10^7 HCC70 or MDA-MB-468 suspended in 150 μL culture media/Matrigel (BD Biosciences) in a 4:1 ratio. One μmol/L of 17β-estradiol was supplemented in the mouse drinking water as described (Garcia-Garcia et al., Clinical cancer research: an official journal of the American Association for Cancer Research 18, 2603 (2012)).
(§2) For patient-derived xenograft (PDX) studies, tumors were subcutaneously implanted in 6-week old female athymic nude mice. Upon xenograft growth, tumor tissue was reimplanted into recipient mice, which were randomized upon implant growth. For the collection of circulating tumor cells (CTCs), tumors were implanted into the mammary pad of athymic nude mice.
(§3) Once tumors reached an average volume of about 150-250 mm^3, mice were randomized into treatment arms, with n=7-11 tumors/group. GDC-0068 [40 mg/kg] or GDC-0941 [75 mg/kg] were dissolved in 0.5% methylcellulose and 0.2% Tween-80 (MCT) solution and administered once daily via oral gavage. […] Tumors were measured by digital caliper over the entire treatment period. Tumor volume was determined using the formula: (length×width^2)×(π/6). Tumor volumes are plotted as means±SEM.

[3] = system: patient-derived xenografts (PDX) of TNBC; assay: Patient-derived xenograft tumor growth; assay type: in vivo, mice; settings: MEHD7945A 10 mg/Kg twice weekly, GDC-0941 75 mg/Kg daily, GDC-0068 40 mg/kg daily
Method: The activity of the same treatments in patient-derived xenografts (PDX) of TNBC was then tested.
as §2, §3

[4] = system: EGFR, HER3 and downstream signaling pathways; assay: Western blot of EGFR, HER3 and downstream signaling in cells; assay type: cell-based
Method: HCC70 and MDA-MB-468 TNBC cell lines, characterized by elevated levels of EGFR and loss of PTEN expression, were treated with GDC-0068, GDC-0941, MEHD7945A, and the combinations of these inhibitors.
Cells were washed with ice-cold phosphate buffered saline (PBS) and scraped into ice-cold RIPA lysis buffer (Cell Signaling) supplemented with phosphatase inhibitor cocktails (Complete Mini, and PhosphoStop (Roche)). Lysates were cleared by centrifugation at 13,000 rpm for 10 minutes at 4° C., supernatants removed and assayed for protein concentration using the Pierce BCA Protein Assay Kit (Thermo Scientific). Thirty-five micrograms of total lysate was resolved on NuPAGE 4-12% Bis-Tris gels (Life Technologies) and electrophoretically transferred to Immobilon transfer membranes (Millipore). Membranes were blocked for 1 hour in 5% nonfat dry milk in TBS-Tween and then hybridized using the following primary antibodies in 5% bovine serum albumin (BSA) TBS-Tween: phospho-Akt (Ser473), phospho-Akt (Thr308), Akt, phospho-S6 (Ser(240/4), phospho-S6 (Ser235/6), S6, phospho-PRAS40 (Thr246), PRAS40, phospho-Erk (Thr202/Tyr204), Erk, phospho-EGFR (Tyr1068), EGFR, phospho-HER3 (Tyr1289), HER3 (1:500-1:1000, Cell Signaling). Beta-actin was used as a loading control (1:5000, Sigma), also in 5% BSA TBS-Tween. Mouse and rabbit horseradish peroxidase (HRP)-conjugated secondary antibodies (1:50,000, Amersham Biosciences) were diluted in 2% nonfat dry milk in TBS-Tween. Protein—antibody complexes were detected by chemiluminescence with SuperSignal West FemtoChemiluminescent Substrate (Thermo Scientific) and images were captured with a G-BOX camera system.

[5] = system: EGFR and HER3; assay: CEER analysis of active and total EGFR and HER3 in xenograft tumors; assay type: in vivo, mice
Method: The levels of EGFR and HER3 expression/activation in HCC70 tumors collected at the end of the experiments (day 39) was investigated. […] Frozen tissue was analyzed by Cooperative, Enhanced, Enzyme Immunoreactive (CEER), a platform that utilizes reverse-phase detection of nanogram quantities of protein.
The levels of pathway protein expression and their activation in xenografts were determined by CEER. (Kim et al., ASCO Annual Meeting abstract P2-06-13, (2010)) CEER utilizes the formation of unique immuno-complexes between capture antibodies printed on a nitrocellulose microarray surface, the target molecule in cell lysate reacted with the slide, and two independent detector-antibodies. One of the detector-antibody is conjugated to glucose oxidase, and the other is conjugated to horseradish peroxidase. Target detection (expressed as computational unit, CU) requires the presence of both detector-antibodies and the enzyme channeling event between glucose oxidase and horseradish peroxidase will not occur unless both antibodies are in close proximity.

[6] = system: MDA-MB-468- and HCC70-derived xenografts; assay: Cell line-derived xenograft tumor growth; assay type: in vivo, mice; settings: MDA-MB-468 and HCC70 xenografts; p less than 0.01 combination vs monotherapy
Method: To expand these findings in vivo, the efficacy of MEHD7945A was tested in combination with either the Akt or PI3K inhibitor in both MDA-MB-468- and HCC70-derived xenografts.
as §1, §3

[7] = system: HCC70 and MDA-MB-468 cells; assay: Five days proliferation analysis (Crystal Violet / CellTiter-Glo); assay type: cell-based; settings: 5 days; MEHD7945A 10 nM, GDC-0068 and GDC-0941 1 uM
Method: Whether the combination of MEHD7945A with GDC-0068 or GDC-0941 would result in enhanced antiproliferative activity was tested in both HCC70 and MDA-MB-468 cells.
For proliferation, 5×10^5 cells were seeded in 96-well plates and treated with the indicated concentrations of GDC-0068, GDC-0941, and/or MEHD7945A. After 5 days, cells were fixed and stained with Crystal Violet. Cell proliferation was also analyzed with CellTiter-Glo Luminescent Cell Viability Assay (Promega) as described by the manufacturer. For heregulin (HRG, Peprotech) and epidermal growth factor (EGF, Peprotech)-induced proliferation, 5×10^5 cells were treated with GDC-0068, GDC-0941, and/or MEHD7945A in the presence of 4 ng/ml of ligands for 5 days and then stained with Crystal Violet.

[8] = system: TNBC patients; assay: Neoadjuvant trial of panitumumab with standard chemotherapy (pCR, EGFR and HER3 IHC); assay type: in vivo, human
Method: Patient samples: Tumor tissue was fixed in 10%-buffered formalin for 48 h and further embedded in paraffin. Four-micron sections were deparaffinized in xylene and hydrated in graded alcohols. For EGFR detection, the antigen was retrieved by protease treatment (8 min at 37° C.) and the sections further incubated at 37° C. for 1 h with pre-diluted, ready-to-use mouse monoclonal anti-EGFR (clone 3C6, Ventana, Tucson, Ariz.). The antigen-antibody reaction was visualized by UltraView DAB reveal system in a Benchmark XT automated IHC stainer (all from Ventana). For HER3, the antigen retrieval was performed by heating the sections at 97° C. for 20 min in EnVision® Target Retrieval Solution High pH (Dako) in PT-Link apparatus (Dako). The tissues were then incubated at 37° C. for 2 h with mouse monoclonal anti-HER3 (clone DAK-H3-IC, Dako, Glostrup, Denmak) diluted at 1:50. […] For each patient the pre-treatment and the post-treatment tumor sample were run together. IHC staining was interpreted by an expert pathologist who was blind to patient information. Both EGFR and HER3 expressions were quantified using an arbitrary scale having 0, 0.5, 1, 1.5, 2, 2.5 and 3 as measures of increasing staining intensity. EGFR and HER3 histoscores were defined as a sum of products obtained by multiplying the staining intensity with the percentage of stained cells.
FFPE specimens for IHC analyses of EGFR and HER3 expression were obtained from the institutions participating in two French multicenter pilot phase II neoadjuvant trials which tested the efficacy of an anti-EGFR antibody combined to chemotherapy in TNBC stage II-IIIA pts. One trial regimen consisted of 8 cycles, administered each 3 weeks. First 4 cycles contained 9 mg/kg of panitumumab combined with 500 mg/m2 of each 5-fluorouracil and cyclophosphamide plus 100 mg/m2 of epirubicin. Last 4 cycles had panitumumab with 100 mg/m2 docetaxel instead of 3 cytotoxics previously mentioned. […] All patients underwent surgery at completion of treatment. Pathologic complete response (pCR) was the primary endpoint with clinical response and toxicity as secondary endpoints. […] Tumor tissue samples were systematically collected before and at the end of the neoadjuvant treatment and collection was centralized at the Jean Perrin Comprehensive Cancer Center where molecular and pathological analyses were performed. pCR was evaluated using Chevallier's (Chevallier et al., American Journal of Clinical Oncology 16, 223 (1993)) and Sataloff's (Sataloff et al., Journal of the American College of Surgeons 180, 297 (1995)) classifications.

[9] = cells stimulated with either EGF or Heregulin
[10] = pre-treatment EGFR histoscore more than 70
[11] = pre-treatment EGFR histoscore ≦70

MEHD7945A: dual-action antibody with two identical antigen binding domains, each of which specifically binds to both HER3 and EGFR
effect on antiproliferative activity mediated by PI3K/Akt inhibition ([1]; HCC70 cells stimulated with EGF, antibodies 10 nM, GDC-0068 and GDC-0941 1 uM, 5 days): enhanced the antiproliferative activity mediated by PI3K/Akt inhibition | cooperation with the antiproliferative activity of GDC-0068 and GDC-0941 ([1]; HCC70 cells stimulated with heregulin (HRG), antibodies 10 nM, 5 days): superior to cetuximab | effect on antiproliferative activity of the PI3K inhibitors [1, 9]: improved the antiproliferative activity of the PI3K inhibitors | EGFR and HER3 phosphorylation consequent to PI3K inhibition in treated tumors ([2]; analysis of treated tumors): effectively prevented EGFR and HER3 phosphorylation | tumor growth ([2]; three TNBC models, MEHD7945A 10 mg/kg i.p. twice weekly, GDC-0068 40 mg/kg, GDC-0941 75 mg/kg oral once daily): variable delay in tumor growth | tumor growth [3]: delayed tumor growth | inhibition of the PI3K and ERK downstream pathways ([4]; addition of MEHD7945A 10 nM to GDC-0068 or GDC-0941, both cell lines): enhanced the inhibition of the PI3K and ERK downstream pathways | induction of EGFR and HER3 phosphorylation by GDC-0068 or GDC-0941 ([4]; addition of MEHD7945A 10 nM, both cell lines, 24 hours): prevented the induction of EGFR and HER3 phosphorylation | HER3/EGFR receptor phosphorylation [4, 9]: prevented HER3/EGFR receptor phosphorylation | EGFR phosphorylation (CEER) ([5]; HCC70 xenografts): blocked EGFR phosphorylation | HER3 activation (CEER) ([5]; HCC70 xenografts): decreased HER3 activation | active and total levels of HER3 and EGFR (CEER) ([5]; TNBC PDX, tumors harvested 2 h after the last drug administration): prevented receptor phosphorylation | tumor growth inhibition [6]: responded only modestly | inhibition of cell proliferation/viability [7]: varying sensitivity

panitumumab: anti-EGFR antibody, epidermal growth factor receptor antagonist
residual disease at the time of surgery, rate ([8]; 40 patients): 52.5% | pathological complete response (pCR) rate ([8]; 40 patients, panitumumab with 4 standard cytotoxic agents, 24 weeks): 47.5% | increase in pCR compared to TNBC patients treated only with cytotoxics-based neoadjuvant chemotherapy ([8]; comparison with Liedtke et al. 2008): two-fold increase | patients with residual disease at the time of surgery ([8]; of 40 patients): 21 | patients achieving pathological complete response (pCR) ([8]; of 40 patients, panitumumab with 4 standard cytotoxic agents, 24 weeks): 19 | non-pCR patients with higher HER3 expression in residual lesions versus pre-treatment (IHC) ([8]; p equals 0.010): 7 out of 13 | non-pCR patients with decreased EGFR levels in residual tumors versus baseline (IHC) ([8]; p equals 0.07): nine out of 21 | pCR rate [8, 10]: 58% | patients with pCR [8, 10]: 15 out of 26 | complete tumor regression rate [8, 11]: 28% | patients with complete tumor regression [8, 11]: 4 out of 14
